Laboratory results as given in patent US20230174507A1, “IMIDAZOLE 3-OXIDE DERIVATIVE BASED ACSS2 INHIBITORS AND METHODS OF USE THEREOF” (METABOMED LTD., priority 2020, published 2023).

Columns and labels:
human ACSS1 protein = molecular target: T1, human ACSS1 protein (Homo sapiens, UniProt Q9NUB1); assay: ACSS1 cell-free activity assay (pyrophosphatase-coupled, Biomol green); type: biochemical; details: 5 nM human ACSS1, 30 minutes at room temperature, absorbance at 620 nm
T1 construct: purchased MyBioSource
T1 sequence (Q9NUB1 38-689): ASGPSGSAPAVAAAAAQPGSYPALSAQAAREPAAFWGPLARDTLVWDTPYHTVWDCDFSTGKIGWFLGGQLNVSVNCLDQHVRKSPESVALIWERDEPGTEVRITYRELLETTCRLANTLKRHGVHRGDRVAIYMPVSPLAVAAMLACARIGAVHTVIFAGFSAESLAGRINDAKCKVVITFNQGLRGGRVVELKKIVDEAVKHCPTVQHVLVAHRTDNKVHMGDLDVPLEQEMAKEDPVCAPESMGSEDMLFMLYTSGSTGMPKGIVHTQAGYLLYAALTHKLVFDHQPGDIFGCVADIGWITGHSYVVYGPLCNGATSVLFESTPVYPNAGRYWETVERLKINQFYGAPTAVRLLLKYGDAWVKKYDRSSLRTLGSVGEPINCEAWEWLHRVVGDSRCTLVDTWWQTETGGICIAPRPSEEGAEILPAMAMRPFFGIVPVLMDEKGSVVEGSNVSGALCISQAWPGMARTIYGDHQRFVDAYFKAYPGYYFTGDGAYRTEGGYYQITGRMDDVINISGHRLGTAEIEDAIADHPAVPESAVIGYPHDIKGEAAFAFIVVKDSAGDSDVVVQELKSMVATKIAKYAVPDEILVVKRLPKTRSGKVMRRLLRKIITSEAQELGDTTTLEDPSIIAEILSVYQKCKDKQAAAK
Method: ACSS1 Cell-Free Activity Assay (Cell-Free IC50)
(§1) The assay is based on a coupling reaction with Pyrophosphatase: ACSS1 is converting ATP+CoA+Acetate=>AMP+pyrophosphate+Acetyl-CoA (Ac-CoA). Pyrophosphatase converts pyrophosphate, a product of the ACSS1 reaction, to phosphate which can be detected by measuring the absorbance at 620 nm after incubation with the Biomol green reagent (Enzo life Science, BML-AK111).
(§2) Cell Free IC50 Determination:
5 nM of human ACSS1 protein (MyBioSource) was incubated for 30 minutes at room temperature with various compounds' concentrations in a reaction containing 50 mM Hepes pH 7.5, 10 mM DTT, 90 mM KCl, 0.006% Tween-20, 0.1 mg/ml BSA, 2 mM MgCl2, 15 μM CoA, 5 mM NaAc, 300 μM ATP and 0.5 U/ml Pyrophosphatase (Sigma). At the end of the reaction, Biomol Green was added for 30 minutes at RT and the activity was measured by reading the absorbance at 620 nm. IC50 values were calculated using non-linear regression curve fit with 0% and 100% constrains (CDD Vault, Collaborative Drug Discovery, Inc.).

[1] = molecular target: T2, ACSS2 in MDA-MB-468 cells (Homo sapiens, UniProt Q9NR19); assay: Cellular fatty-acid IC50: 13C-acetate incorporation into fatty acids (palmitate), LC-MS; type: cell-based; details: hypoxic conditions (1% O2), 75% charcoal stripped serum, 5 hours, 13C-acetate into palmitate, read-out: Cellular Fatty-acid IC50 High Serum MDA468
T2 construct: endogenous in cells; host or cells: MDA-MB-468 cells, hypoxia (1% O2)
Method: Cellular Fatty-Acid IC50 Determination:
The cellular activity of ACSS2 was measured in MDA-MB-468 cells under hypoxic conditions by tracing the incorporation of labelled carbons from ^13C-acetate into newly synthesized fatty acids. The assay was performed using 75% charcoal stripped serum (high serum conditions).
MDA-MB-468 cells were seeded in 12-well plates (0.35×10^6 cells per well) in plating medium (Dulbecco's Modified Eagle Medium containing 25 mM D-glucose, 1 mM sodium pyruvate, 10% v/v fetal bovine serum, and 2 mM glutamine) and incubated for 24 hours under hypoxic conditions (1% O2).
The next day, tracing medium containing DMEM (01-057-1A) containing 75% charcoal stripped serum (Biological industries 04-201-1A), 3.5 μg/mL Biotin (Sigma-Aldrich B4639), 1 mM Pyruvate, 5.5 mM Glucose, 0.65 mM Glutamine and 0.5 mM ^13C-Acetate (Sigma-Aldrich #282014) with serial dilutions of the compounds in the range of 0.000512-1000 nM were prepared. The plating medium was replaced with 1 mL tracing medium plus compounds and the cells were incubated for 5 hours under hypoxic conditions (1% O2). Plating medium in control wells (without cells or without compounds) was replaced with 1 mL tracing medium containing 0.01% v/v DMSO.
The level of ^13C-acetate incorporation into fatty acids (palmitate) was measured by LC-MS analysis and IC50 as described below:
Sample Preparation for LC-MS
• a) Cells were washed twice with cold phosphate buffered saline (PBS), scraped into 0.5 mL EDTA pH 8.0, and transferred into 1.1 mL V-shaped HPLC glass tubes. • b) The cell suspensions were centrifuged for 5 minutes at 400×g, 4° C. and the supernatants were removed. • c) Cell pellets were frozen at −80° C.
• d) Cell pellets were resuspended in 0.2 mL of 80% v/v ethanol in water containing 0.02 M NaOH in 1.1 ml glass (v-bottom) HPLC vials. • e) The vials were closed tight and incubated at 66° C. for 60 minutes. • f) Acetonitrile containing 2% v/v formic acid (150 μL) was added to each vial and the mixtures were transferred to Eppendorf tubes for centrifugation at 17 000×g for 20 minutes. • g) Supernatants were transferred to LC-MS vials.
The relative palmitate concentration was measured by LC-MS in reconstructed selected ion monitoring (RSIM) mode and negative ion mode. Samples were analyzed on a Phenomenex Kinetex 2.6 μm XB-C18 150×2.1 mm column at 45° C. (0.4 mL/minute flow rate) using: • a) A gradient from 15% A/85% C to 100% C for 0 to 2 minutes (A: water containing 5% v/v acetonitrile, 10 mM ammonium acetate, and 10 mM acetic acid; C: a mixture of 50% v/v acetonitrile and 50% v/v methanol). • b) Isocratic flow (100% C) for 2 to 5 minutes. • c) Equilibration in isocratic conditions (15% A/85% C) for 5 to 8 minutes.
Palmitate was eluted at approximately 3.4 minutes.
The percent inhibition was calculated relative to the sample without compound and after background deduction. IC50 values were calculated using non-linear regression curve fit analysis with 0% and 100% constraints (CDD Vault, Collaborative Drug Discovery, Inc. or GraphPad Prism).
The inhibitory activities of each compound against ACSS2 in MDA-MB-468 cells under high serum conditions, as determined by ^13C-acetate incorporation into fatty acids (palmitate), are presented in Table 2.

human ACSS2 protein = molecular target: T3, human ACSS2 protein (Homo sapiens, UniProt Q9NR19); assay: ACSS2 cell-free activity assay (pyrophosphatase-coupled, Biomol green); details: 10 nM human ACSS2, 90 minutes at 37 C, absorbance at 620 nm; read-out: ACSS2 Biochemical IC50
T3 construct: purchased OriGene Technologies, Inc
Method: ACSS2 Cell-Free Activity Assay (Cell-Free IC50)
as §1, with “ACSS2” for “ACSS1”
as §2
10 nM of human ACSS2 protein (OriGene Technologies, Inc) was incubated for 90 minutes at 37 C with various compounds' concentrations in a reaction containing 50 mM Hepes pH 7.5, 10 mM DTT, 90 mM KCl, 0.006% Tween-20, 0.1 mg/ml BSA, 2 mM MgCl2, 10 μM CoA, 5 mM NaAc, 300 μM ATP and 0.5 U/ml Pyrophosphatase (Sigma). At the end of the reaction, Biomol Green was added for 30 minutes at RT and the activity was measured by reading the absorbance at 620 nm. IC50 values were calculated using non-linear regression curve fit with 0% and 100% constrains (CDD Vault, Collaborative Drug Discovery, Inc.).

T3 sequence (Q9NR19 whole entry): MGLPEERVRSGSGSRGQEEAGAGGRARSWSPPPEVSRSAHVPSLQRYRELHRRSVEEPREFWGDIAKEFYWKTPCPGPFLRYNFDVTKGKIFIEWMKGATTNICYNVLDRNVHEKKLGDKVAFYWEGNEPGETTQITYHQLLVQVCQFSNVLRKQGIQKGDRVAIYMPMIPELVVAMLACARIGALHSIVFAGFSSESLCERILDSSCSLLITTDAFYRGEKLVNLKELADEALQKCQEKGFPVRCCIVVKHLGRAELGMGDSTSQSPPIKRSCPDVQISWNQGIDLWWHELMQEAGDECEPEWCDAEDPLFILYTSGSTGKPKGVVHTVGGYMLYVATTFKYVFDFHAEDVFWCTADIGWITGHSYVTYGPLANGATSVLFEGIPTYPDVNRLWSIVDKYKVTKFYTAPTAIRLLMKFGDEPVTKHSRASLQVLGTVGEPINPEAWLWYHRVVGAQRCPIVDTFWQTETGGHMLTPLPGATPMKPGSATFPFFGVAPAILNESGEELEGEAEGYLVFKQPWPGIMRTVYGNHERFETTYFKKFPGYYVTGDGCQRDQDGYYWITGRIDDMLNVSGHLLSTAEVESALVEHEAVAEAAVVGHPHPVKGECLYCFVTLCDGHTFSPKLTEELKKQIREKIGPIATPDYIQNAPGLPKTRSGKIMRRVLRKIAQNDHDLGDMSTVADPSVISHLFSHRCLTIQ
T2 sequence (Q9NR19 whole entry): as above

## COc1ccc(-c2[nH]c(C)c(C(=O)Nc3cccc(-c4cn(C)nn4)c3)[n+]2[O-])cc1-c1c(C)cccc1C [Compound 199, 2-(6-methoxy-2′,6′-dimethyl-[1,1′-biphenyl]-3-yl)-5-methyl-4-((3-(1-methyl-1H-1,2,3-triazol-4-yl)phenyl)carbamoyl)-1H-imidazole 3-oxide]
Human ACSS1 protein
  ACSS1 Biochemical IC50 (nM): Inactive
[1]
  IC50: 0.02 to 0.05 µM
Human ACSS2 protein
  IC50: < 0.001 µM

## CNC(=O)c1cccc(NC(=O)c2c(C)[nH]c(-c3cc(-c4c(C)cccc4C)cc(N(C)C)c3)[n+]2[O-])c1 [Compound 182, 2-(5-(dimethylamino)-2′,6′-dimethyl-[1,1′-biphenyl]-3-yl)-5-methyl-4-((3-(methylcarbamoyl)phenyl)carbamoyl)-1H-imidazole 3-oxide]
Human ACSS1 protein
  ACSS1 Biochemical IC50 (nM): Inactive
[1]
  IC50: < 0.02 µM
Human ACSS2 protein
  IC50: < 0.001 µM

## COc1cc(-c2c(C)cccc2C)cc(-c2[nH]c(C)c(C(=O)Nc3cccc(C(F)(F)C4CC4)c3)[n+]2[O-])c1 [Compound 131, 4-((3-(cyclopropyldifluoromethyl)phenyl)carbamoyl)-2-(5-methoxy-2′,6′-dimethyl-[1,1′-biphenyl]-3-yl)-5-methyl-1H-imidazole 3-oxide]
Human ACSS1 protein
  ACSS1 Biochemical IC50 (nM): Inactive
[1]
  IC50: 0.02 to 0.05 µM
Human ACSS2 protein
  IC50: < 0.001 µM

## CCC(F)(F)c1cccc(NC(=O)c2c(C)[nH]c(-c3ccc(OC)c(-c4ncccc4C)c3)[n+]2[O-])c1 [Compound 100, 4-((3-(1,1-difluoropropyl)phenyl)carbamoyl)-2-(4-methoxy-3-(3-methylpyridin-2-yl)phenyl)-5-methyl-1H-imidazole 3-oxide]
Human ACSS1 protein
  ACSS1 Biochemical IC50 (nM): Inactive
[1]
  IC50: < 0.02 µM

## CCC(F)(F)c1cccc(NC(=O)c2c(C)[nH]c(-c3ccc(OC)c(-c4c(C)cc(C)cc4C)c3)[n+]2[O-])c1 [Compound 152, 4-((3-(1,1-difluoropropyl)phenyl)carbamoyl)-2-(6-methoxy-2′,4′,6′-trimethyl-[1,1′-biphenyl]-3-yl)-5-methyl-1H-imidazole 3-oxide]
Human ACSS1 protein
  ACSS1 Biochemical IC50 (nM): Inactive
Human ACSS2 protein
  IC50: 0.001 to 0.03 µM

## CCN(C)C(=O)c1cccc(NC(=O)c2c(C)[nH]c(-c3ccc(OC)c(-c4c(C)cccc4C)c3)[n+]2[O-])c1 [Compound 140, 4-((3-(ethyl(methyl)carbamoyl)phenyl)carbamoyl)-2-(6-methoxy-2′,6′-dimethyl-[1,1′-biphenyl]-3-yl)-5-methyl-1H-imidazole 3-oxide]
Human ACSS1 protein
  ACSS1 Biochemical IC50 (nM): Inactive
Human ACSS2 protein
  IC50: 0.001 to 0.03 µM

## CCC(F)(F)c1cccc(NC(=O)c2c(C)[nH]c(-c3ccc(OC)cc3)[n+]2[O-])c1 [Compound 101, 4-((3-(1,1-difluoropropyl)phenyl)carbamoyl)-2-(4-methoxyphenyl)-5-methyl-1H-imidazole 3-oxide]
Human ACSS1 protein
  ACSS1 Biochemical IC50 (nM): Inactive
[1]
  IC50: 0.02 to 0.05 µM

## Cc1cccc(C)c1-c1cc(-c2[nH]c(C)c(C(=O)Nc3cccc(C(F)(F)C4CC4)c3)[n+]2[O-])cc(C(C)C)c1 [Compound 134, 4-((3-(cyclopropyldifluoromethyl)phenyl)carbamoyl)-2-(5-isopropyl-2′,6′-dimethyl-[1,1′-biphenyl]-3-yl)-5-methyl-1H-imidazole 3-oxide]
Human ACSS1 protein
  ACSS1 Biochemical IC50 (nM): Inactive
Human ACSS2 protein
  IC50: 0.001 to 0.03 µM

## CCC(F)(F)c1cccc(NC(=O)c2c(C)[nH]c(-c3ccc(OC)c(N4CCNCC4)c3)[n+]2[O-])c1 [Compound 164, 4-((3-(1,1-difluoropropyl)phenyl)carbamoyl)-2-(4-methoxy-3-(piperazin-1-yl)phenyl)-5-methyl-1H-imidazole 3-oxide]
Human ACSS1 protein
  ACSS1 Biochemical IC50 (nM): Inactive
Human ACSS2 protein
  IC50: < 0.001 µM

## COc1ccc(-c2[nH]c(C)c(C(=O)Nc3cccc(-c4ccc[nH]4)c3)[n+]2[O-])cc1-c1c(C)cccc1C [Compound 191, 4-((3-(1H-pyrrol-2-yl)phenyl)carbamoyl)-2-(6-methoxy-2′,6′-dimethyl-[1,1′-biphenyl]-3-yl)-5-methyl-1H-imidazole 3-oxide]
Human ACSS1 protein
  ACSS1 Biochemical IC50 (nM): Inactive
Human ACSS2 protein
  IC50: > 0.03 µM

## CCC(F)(F)c1cccc(NC(=O)c2c(C)[nH]c(-c3ccc(OC)c(N4CCN(C)CC4)c3)[n+]2[O-])c1 [Compound 165, 4-((3-(1,1-difluoropropyl)phenyl)carbamoyl)-2-(4-methoxy-3-(4-methylpiperazin-1-yl)phenyl)-5-methyl-1H-imidazole 3-oxide]
Human ACSS1 protein
  ACSS1 Biochemical IC50 (nM): Inactive
Human ACSS2 protein
  IC50: < 0.001 µM

## COCCN(C)C(=O)c1cccc(NC(=O)c2c(C)[nH]c(-c3ccc(OC)c(-c4c(C)cccc4C)c3)[n+]2[O-])c1 [Compound 141, 2-(6-methoxy-2′,6′-dimethyl-[1,1′-biphenyl]-3-yl)-4-((3-((2-methoxyethyl)(methyl)carbamoyl)phenyl)carbamoyl)-5-methyl-1H-imidazole 3-oxide]
Human ACSS1 protein
  ACSS1 Biochemical IC50 (nM): Inactive
Human ACSS2 protein
  IC50: > 0.03 µM
